Laboratory results as given in patent publication US10092537B2, “Use for PAI-1 inhibitor” (RENASCIENCE CO., LTD., priority 2013, dated 2018).

Assays:
[1] = system: CML cells (32Dp210-GFP cells); assay: Chronic myelogenous leukemia model mice, imatinib and compound a (Experimental Example 11); format: in vivo, C3H/HeJ mice; conditions: imatinib 150 mg/kg/day alone
Procedure: p210(BCR-ABL) gene was inserted into a MIGR1 vector, and GFP cDNA was further incorporated as a reporter gene downstream of the gene (hereinafter, the vector is referred to as “p210-GFP”). p210-GFP was infected with 32D cells (C3H/HeJ mice cell line), and chronic myelogenous leukemia (hereinafter, referred to as “CML”) cells were prepared. 2.5×10^5 of the thus-obtained CML cells (32Dp210(BCR-ABL)-GFP cells, hereinafter, referred to as “32Dp210-GFP cells”) were intravenously administered into the retro-orbital plexus of C3H/HeJ mice. 7 to 10 days after the transplantation, the abundance ratio of GFP cells in the peripheral blood was analyzed, and mice with more than 3% of abundance ratio were used as chronic myelogenous leukemia model mice in the following experiments.
15 chronic myelogenous leukemia model mice prepared by using the procedure described above were divided into the following 3 groups (each group: n=15), and a test drug was administered to the mice in accordance with the protocol shown in FIG. 15A.
(§1) Group 1: placebo group (physiological saline was administered via gavage)
(§2) Group 2: imatinib group (imatinib [150 mg/kg/day] was administered via gavage)
Group 3: imatinib+compound a group (imatinib [150 mg/kg/day] and compound a [100 mg/kg/day] were administered via gavage)
(§3) 10 days (day 10) after the day on which CML cells were intravenously inoculated (day 0), administration of test drugs to the groups was started. The placebo group and the imatinib group were administered the respective test drugs once a day from day 10 to day 16 (7 doses in total). The imatinib+compound a group was administered imatinib once a day from day 10 to day 16 (7 doses in total), and also administered compound a once a day from day 10 to day 14 (5 doses in total).
As described above, 32Dp210-GFP includes GFP as a reporter gene, and thus, the CML cells having 32Dp210-GFP inserted (32Dp210-GFP cells) are GFP-positive. Therefore, using FACS (FACS (BD Biosciences: FACSCalibur), the frequency of CML cells (32Dp210-GFP cells) in mononucleic cells of the bone marrow and spleen was measured and compared between the imatinib group and the imatinib+compound a group.

[2] = system: CML cells (32Dp210-GFP cells); assay: Chronic myelogenous leukemia model mice, imatinib and compound c (Experimental Example 12); format: in vivo; conditions: imatinib 150 mg/kg/day alone
Procedure: Chronic myelogenous leukemia model mice prepared in the same manner as in Experimental Example 11 were divided into the following 3 groups (each group: n=10), and the groups were administered respective test drugs in accordance with the protocol shown in FIG. 15A.
as §1, §2
(§4) Group 3: imatinib+compound c group (imatinib [150 mg/kg/day] and compound c [10 mg/kg/day] were administered via gavage)
(§5) 8 days (day 8) after the day on which CML cells (32Dp210-GFP cells) were intravenously inoculated (day 0), administration of the test drugs to the groups was started. The placebo group and the imatinib group were administered the respective test drugs once a day from day 8 to day 14 (7 doses in total). The imatinib+compound c group was administered imatinib once a day from day 8 to day 14 (7 doses in total), and also administered compound c once a day from day 8 to day 14 (7 doses in total).

CML cells [3] = assay: Chronic myelogenous leukemia model mice, imatinib, PAI-1 inhibitor and G-CSF neutralizing antibody (Experimental Example 14); format: in vivo
Procedure: In this experiment, whether G-CSF is involved in the effect was examined. Compound a was used as a PAI-1 inhibitor.
as §1
Group 2: IM group (imatinib [150 mg/kg/day] was administered via gavage)
Group 3: IM+anti-G-CSF group (imatinib [150 mg/kg/day] was administered via gavage, G-CSF neutralizing antibody [500 μg/kg/day] was subcutaneously administered)
Group 4: IM+TM group (imatinib [150 mg/kg/day] and compound a [100 mg/kg/day] were administered via gavage)
Group 5: IM+TM+anti-G-CSF group (imatinib [150 mg/kg/day] and compound a [100 mg/kg/day] were administered via gavage, and G-CSF neutralizing antibody [500 μg/kg/day] was subcutaneously administered)
The day on which CML cells were inoculated was set as day 0, and each test drug was administered from day 8 to day 14 (7 doses in total).

CML cells [4] = assay: Chronic myelogenous leukemia model mice, CML cells engrafted onto bone marrow by FACS (Experimental Example 15); format: in vivo
Procedure: Chronic myelogenous leukemia model mice prepared in accordance with the procedure of Experimental Example 11 (1) were divided into 3 groups (each group: n=15) and administered respective test drugs.
as §1, §2, §4
as §5, with “cells” for “cells (32Dp210-GFP cells)”, “of” for “of the”
CML cells engrafted onto bone marrow were analyzed by FACS immediately before the administration of a test drug (day 8; “immediately before antitumor agent treatment” in FIG. 19), immediately after the completion of administration of a test drug (day 14; “immediately after antitumor agent treatment” in FIG. 19), and day 28 from the start of administration of a test drug (day 36; “after 28 days” in FIG. 19). […] About 50% leukemia cells were grafted on the bone marrow immediately before administration of a test drug (day 8; “immediately before antitumor agent treatment” in FIG. 19). After the tumor-bearing mice were administered a test drug 7 times (day 14), the proportion of CML cells was analyzed. […] All of the mice in the group administered physiological saline died.

CML cells [5] = assay: Chronic myelogenous leukemia model mice, compound a alone, imatinib, combination (Experimental Example 16); format: in vivo; conditions: imatinib 150 mg/kg/day alone
Procedure: as §1
Group 2: compound a group (compound a [100 mg/kg/day] was administered via gavage)
Group 3: imatinib group (imatinib [150 mg/kg/day] was administered via gavage)
Group 4: imatinib+compound a group (imatinib [150 mg/kg/day] and compound a [100 mg/kg/day] were administered via gavage)
as §3, with “days after” for “days”, “10)” for “10) after”, “placebo group, the compound a group,” for “placebo group”, “day 16 (7” for “day 14 (5”

CML cells [6] = assay: Chronic myelogenous leukemia model mice, imatinib with compound d or compound e (Experimental Example 17); format: in vivo; conditions: imatinib 150 mg/kg/day alone
Procedure: as §1, §2
Group 3: imatinib+compound d group (imatinib [150 mg/kg/day] and compound d [10 mg/kg/day] were administered via gavage)
Group 4: imatinib+compound e group (imatinib [150 mg/kg/day] and compound e [10 mg/kg/day] were administered via gavage)
8 days after (day 8) the day (day 0) on which CML cells were intravenously inoculated, administration of test drugs to the groups was started. The placebo group and the imatinib group were administered the respective test drugs once a day from day 8 to day 14 (7 doses in total). The imatinib+compound d group and imatinib+compound e group were administered imatinib once a day from day 8 to day 14 (7 doses in total), and also administered compound d or e once a day from day 8 to day 14 (7 doses in total).

Q: Which results are given for Cc1ccc(NC(=O)c2ccc(CN3CCN(C)CC3)cc2)cc1Nc1nccc(-c2cccnc2)n1 [imatinib, reference compound]?
A: frequency of 32Dp210-GFP cells in bone-marrow mononucleic cells [1]: about 55%; frequency of CML cells (32Dp210-GFP cells) in the spleen [1]: about 76%; survival [1]: all of the mice died by day 40; median survival period ([1]; placebo 14 days): 27 days; survival [2]: all of the mice died by day 35; median survival period ([2]; placebo 15.5 days): 23.5 days; median survival period (CML cells [3]; IM group: imatinib 150 mg/kg/day alone, placebo 15 days): 22 days; survival (CML cells [3]; IM group: imatinib alone): all of the mice died by day 30; survival (CML cells [3]; IM+anti-G-CSF group): all of the mice died by day 30; median survival period (CML cells [3]; IM+anti-G-CSF group: imatinib 150 mg/kg/day + G-CSF neutralizing antibody 500 μg/kg/day): 23 days; CML (leukemia) cells in the bone marrow (CML cells [4]; imatinib 150 mg/kg/day alone, day 8 to day 14, analysed day 36): 55.5%; proportion of CML cells in the bone marrow (CML cells [4]; imatinib alone, day 14, after 7 doses, about 50% before treatment): marked decrease; survival (CML cells [5]): all of the mice died by day 40; survival (CML cells [6]): all of the mice died by day 40
